# Patent US5929249A, “Substituted imidazolyl-alkyethio-aldanoic acids” (SmithKline Beecham Corporation, priority 1992, dated 1999)
# System: pressor response to angiotensin II
# Experiment: Inhibition of pressor response to angiotensin II in conscious rats
# Assay type: in vivo
# Details: Rattus norvegicus, i.v., intravenous angiotensin II 250 mg/kg [sic], change in mean arterial pressure, read-out: IC50 (dose of compound needed to produce 50% inhibition of the control response to angiotensin II)
# Experimental: Angiotensin II antagonist activity of the compounds of Formula (I) is assessed by in vitro and in vivo methods. In vitro antagonist activity is determined by the ability of the compounds to compete with ^125 I-angiotensin II for binding to vascular angiotensin II receptors and by their ability to antagonize the contractile response to angiotensin II in the isolated rabbit aorta. In vivo activity is evaluated by the efficacy of the compounds to inhibit the pressor response to exogenous angiotensin II in conscious rats and to lower blood pressure in a rat model of renin dependent hypertension.
# Rats are prepared with indwelling femoral arterial and venous catheters and a stomach tube (Gellai et al., Kidney Int. 15:419, 1979). Two to three days following surgery the rats are placed in a restrainer and blood pressure is continuously monitored from the arterial catheter with a pressure transducer and recorded on a polygraph. The change in mean arterial pressure in response to intravenous injections of […] angiotensin II is compared at various time points prior to and following the administration of the compounds intravenously or orally at doses of 0.1 to 300 mg/kg. The dose of compound needed to produce 50% inhibition of the control response to angiotensin II (IC50) is used to estimate the potency of the compounds. […]
compound,measurement,value
CCCCc1ncc(CSc2ccccc2C(=O)O)n1Cc1ccc(C(=O)O)cc1 [S-[(2-n-Butyl-1-{(4-carboxyphenyl)methyl}-1H-imidazol-5-yl)methyl]thiosalicyclic Acid],ED50,~0.5 mg/kg
